Measurements from ChEMBL document CHEMBL1139722, “N',2-diphenylquinoline-4-carbohydrazide based NK3 receptor antagonists” (Bioorg Med Chem Lett, 2006).
One block for each compound: values may come before it. Activity calls are given as the source filed them.

Key:
Neuromedin-K receptor [1] = biological target: T1, Neuromedin-K receptor (Homo sapiens, UniProt P29371); experiment: Displacement of [125I]neurokinin B from cloned human NK3 receptor expressed in CHO cells; assay type: cell-based
T1 sequence (P29371 whole entry): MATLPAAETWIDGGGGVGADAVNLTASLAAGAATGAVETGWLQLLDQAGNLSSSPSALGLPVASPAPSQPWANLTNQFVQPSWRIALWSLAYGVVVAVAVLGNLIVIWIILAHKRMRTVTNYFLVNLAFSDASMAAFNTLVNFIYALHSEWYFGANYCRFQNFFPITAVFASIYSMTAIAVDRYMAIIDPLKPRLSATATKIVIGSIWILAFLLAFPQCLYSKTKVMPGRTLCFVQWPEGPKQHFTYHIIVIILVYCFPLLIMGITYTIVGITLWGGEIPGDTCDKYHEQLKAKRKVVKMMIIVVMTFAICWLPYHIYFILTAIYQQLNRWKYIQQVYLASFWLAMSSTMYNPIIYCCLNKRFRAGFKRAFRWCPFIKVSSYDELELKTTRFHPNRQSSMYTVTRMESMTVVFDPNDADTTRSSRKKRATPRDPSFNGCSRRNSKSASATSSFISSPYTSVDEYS

PXR (NR1I2) = biological target: T2, PXR (NR1I2) (Homo sapiens, UniProt O75469); experiment: Increase in human PXR activation expressed in CHO cells relative to rifampicin; assay type: cell-based; conditions: CHO cells expressing human PXR, read-out: Activity
T2 sequence (O75469 whole entry): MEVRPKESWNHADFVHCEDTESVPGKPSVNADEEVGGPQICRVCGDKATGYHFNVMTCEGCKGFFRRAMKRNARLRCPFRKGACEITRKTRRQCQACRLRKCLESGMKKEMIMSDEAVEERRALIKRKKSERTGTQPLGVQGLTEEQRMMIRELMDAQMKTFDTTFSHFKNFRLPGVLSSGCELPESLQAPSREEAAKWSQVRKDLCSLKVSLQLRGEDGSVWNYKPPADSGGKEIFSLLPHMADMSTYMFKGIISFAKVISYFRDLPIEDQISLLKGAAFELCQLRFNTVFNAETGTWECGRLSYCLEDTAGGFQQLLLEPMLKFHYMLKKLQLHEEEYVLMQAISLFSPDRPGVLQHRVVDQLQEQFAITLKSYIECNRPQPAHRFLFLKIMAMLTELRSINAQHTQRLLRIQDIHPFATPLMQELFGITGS

[2] = biological target: T3, Neuromedin-K receptor (Homo sapiens) (UniProt P29371); experiment: Displacement of [125I]neurokinin B from cloned human NK3 receptor expressed in CHO cells at 1 uM; assay type: cell-based; conditions: filed as antagonist
T3 sequence (whole entry): T1 sequence (P29371 whole entry)

[3] = Metabolic stability in rat liver microsomes after 15 mins; assay type: ADME, Microsome; conditions: read-out: Stability
Gerbil, jird [4] = experiment: Plasma concentration in gerbil at 10 mg/kg, po; assay type: ADME, organism-based; set-up: dose 10 mg/kg, route oral; conditions: meriones, in vivo
Gerbil, jird [5] = experiment: Plasma concentration in gerbil at 75 mg/kg, po; assay type: ADME, organism-based; set-up: dose 75 mg/kg, route oral; conditions: meriones, in vivo
[6] = biological target: T3, Neuromedin-K receptor (Homo sapiens); experiment: Activity at human NK3 receptor assessed as stimulation of inositol phosphate generation in CHO cells up to 10 uM; assay type: functional, cell-based
Neuromedin-K receptor [7] = biological target: T4, Neuromedin-K receptor (Rattus norvegicus, UniProt P16177); experiment: Binding affinity to rat NK3 receptor
T4 sequence (P16177 whole entry): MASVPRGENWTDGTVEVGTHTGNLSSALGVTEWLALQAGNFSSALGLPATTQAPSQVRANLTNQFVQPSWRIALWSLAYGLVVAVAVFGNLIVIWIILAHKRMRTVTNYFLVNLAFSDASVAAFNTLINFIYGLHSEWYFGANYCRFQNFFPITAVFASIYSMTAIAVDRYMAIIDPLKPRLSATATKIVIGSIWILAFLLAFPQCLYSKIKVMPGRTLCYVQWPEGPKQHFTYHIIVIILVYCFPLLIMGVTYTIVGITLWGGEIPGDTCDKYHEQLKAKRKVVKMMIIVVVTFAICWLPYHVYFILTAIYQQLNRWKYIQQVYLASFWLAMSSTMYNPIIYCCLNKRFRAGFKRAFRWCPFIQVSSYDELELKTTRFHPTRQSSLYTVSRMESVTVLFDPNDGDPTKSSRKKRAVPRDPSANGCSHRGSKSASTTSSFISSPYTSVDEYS

[8] = Oral bioavailability in rat; assay type: ADME, organism-based; conditions: in vivo
[9] = Half life in rat; assay type: ADME, organism-based; conditions: in vivo
[10] = Oral bioavailability in dog; assay type: ADME, organism-based, Canis lupus familiaris; conditions: in vivo
[11] = Half life in dog; assay type: ADME, organism-based, Canis lupus familiaris; conditions: in vivo
Salmonella typhimurium [12] = experiment: Effect on Salmonella Typhimurium mutation in presence of liver microsomal enzymes by Ames assay; assay type: functional, organism-based; conditions: Salmonella enterica subsp. enterica serovar Typhimurium
Escherichia coli [13] = experiment: Effect on Escherichia coli mutation in presence of liver microsomal enzymes by Ames assay; assay type: functional, organism-based
[14] = biological target: T3, Neuromedin-K receptor (Homo sapiens); experiment: Activity at human NK3 receptor assessed as inhibition of eledoisin-induced inositol phosphate generation in CHO cells; assay type: functional, cell-based
[15] = biological target: T3, Neuromedin-K receptor (Homo sapiens); experiment: Activity at human NK3 receptor assessed as stimulation of calcium mobilization in CHO cells up to 10 uM; assay type: functional, cell-based
Substance-P receptor = Substance-P receptor (Homo sapiens, UniProt P25103); experiment: Inhibition of human NK1 receptor
Sequence of Substance-P receptor (P25103 whole entry): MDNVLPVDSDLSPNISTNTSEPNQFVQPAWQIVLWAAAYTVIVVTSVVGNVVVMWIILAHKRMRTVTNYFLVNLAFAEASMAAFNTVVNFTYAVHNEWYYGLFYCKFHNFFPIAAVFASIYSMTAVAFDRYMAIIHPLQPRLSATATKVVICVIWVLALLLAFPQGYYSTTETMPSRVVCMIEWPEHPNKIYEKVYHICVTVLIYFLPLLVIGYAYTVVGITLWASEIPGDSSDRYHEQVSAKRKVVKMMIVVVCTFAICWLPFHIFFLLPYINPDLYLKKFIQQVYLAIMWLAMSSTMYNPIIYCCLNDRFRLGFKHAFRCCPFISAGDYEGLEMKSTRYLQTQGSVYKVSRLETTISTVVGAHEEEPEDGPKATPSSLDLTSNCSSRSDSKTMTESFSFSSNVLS

Substance-K receptor = biological target: T5, Substance-K receptor (Homo sapiens, UniProt P21452); experiment: Inhibition of human NK2 receptor
T5 sequence (P21452 whole entry): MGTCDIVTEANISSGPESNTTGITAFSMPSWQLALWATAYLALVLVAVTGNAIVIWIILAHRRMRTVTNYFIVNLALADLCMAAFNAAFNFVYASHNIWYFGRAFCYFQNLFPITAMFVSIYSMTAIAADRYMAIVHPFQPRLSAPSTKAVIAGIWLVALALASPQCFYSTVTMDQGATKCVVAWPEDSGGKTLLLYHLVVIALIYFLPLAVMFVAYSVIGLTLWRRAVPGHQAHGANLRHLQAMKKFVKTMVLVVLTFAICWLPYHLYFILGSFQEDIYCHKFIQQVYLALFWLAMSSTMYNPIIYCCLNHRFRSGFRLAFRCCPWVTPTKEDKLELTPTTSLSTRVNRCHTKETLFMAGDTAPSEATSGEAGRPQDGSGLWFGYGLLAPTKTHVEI

[16] = biological target: Voltage-gated inwardly rectifying potassium channel KCNH2 (Homo sapiens, UniProt Q12809); experiment: Inhibition of hERG; assay type: toxicity
Sequence of Voltage-gated inwardly rectifying potassium channel KCNH2 (Q12809 whole entry): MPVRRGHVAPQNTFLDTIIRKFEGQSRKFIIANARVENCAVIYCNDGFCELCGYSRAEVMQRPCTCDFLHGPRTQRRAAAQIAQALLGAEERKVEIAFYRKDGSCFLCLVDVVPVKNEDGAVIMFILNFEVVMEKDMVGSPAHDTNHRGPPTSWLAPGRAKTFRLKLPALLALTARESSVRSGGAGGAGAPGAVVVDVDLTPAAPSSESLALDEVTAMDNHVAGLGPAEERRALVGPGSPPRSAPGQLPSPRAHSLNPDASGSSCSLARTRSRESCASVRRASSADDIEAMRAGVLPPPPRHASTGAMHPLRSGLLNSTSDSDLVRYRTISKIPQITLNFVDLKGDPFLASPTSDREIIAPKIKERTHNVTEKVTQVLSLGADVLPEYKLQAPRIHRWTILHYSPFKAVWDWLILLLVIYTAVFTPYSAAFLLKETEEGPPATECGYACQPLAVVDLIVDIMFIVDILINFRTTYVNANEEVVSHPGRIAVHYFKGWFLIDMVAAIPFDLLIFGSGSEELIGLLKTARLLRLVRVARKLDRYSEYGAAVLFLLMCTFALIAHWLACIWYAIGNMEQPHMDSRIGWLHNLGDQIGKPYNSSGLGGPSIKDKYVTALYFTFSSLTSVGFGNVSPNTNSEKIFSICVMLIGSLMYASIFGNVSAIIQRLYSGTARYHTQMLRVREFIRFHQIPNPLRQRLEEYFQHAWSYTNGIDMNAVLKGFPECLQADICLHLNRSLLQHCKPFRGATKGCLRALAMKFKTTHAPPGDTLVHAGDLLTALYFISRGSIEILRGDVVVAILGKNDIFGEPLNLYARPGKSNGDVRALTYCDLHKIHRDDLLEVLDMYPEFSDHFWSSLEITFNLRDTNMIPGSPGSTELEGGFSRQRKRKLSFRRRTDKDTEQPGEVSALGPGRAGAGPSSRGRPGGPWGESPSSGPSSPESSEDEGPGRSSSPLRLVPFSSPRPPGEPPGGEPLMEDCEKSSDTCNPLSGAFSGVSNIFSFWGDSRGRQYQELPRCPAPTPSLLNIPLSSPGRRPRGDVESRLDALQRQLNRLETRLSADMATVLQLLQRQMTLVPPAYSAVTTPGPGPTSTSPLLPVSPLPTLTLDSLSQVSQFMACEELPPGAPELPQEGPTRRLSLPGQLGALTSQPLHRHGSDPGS

Cytochrome P450 2C9 = Cytochrome P450 2C9 (Homo sapiens, UniProt P11712); experiment: Inhibition of CYP2C9 in human liver microsomes; assay type: ADME, Microsome
Sequence of Cytochrome P450 2C9 (P11712 whole entry): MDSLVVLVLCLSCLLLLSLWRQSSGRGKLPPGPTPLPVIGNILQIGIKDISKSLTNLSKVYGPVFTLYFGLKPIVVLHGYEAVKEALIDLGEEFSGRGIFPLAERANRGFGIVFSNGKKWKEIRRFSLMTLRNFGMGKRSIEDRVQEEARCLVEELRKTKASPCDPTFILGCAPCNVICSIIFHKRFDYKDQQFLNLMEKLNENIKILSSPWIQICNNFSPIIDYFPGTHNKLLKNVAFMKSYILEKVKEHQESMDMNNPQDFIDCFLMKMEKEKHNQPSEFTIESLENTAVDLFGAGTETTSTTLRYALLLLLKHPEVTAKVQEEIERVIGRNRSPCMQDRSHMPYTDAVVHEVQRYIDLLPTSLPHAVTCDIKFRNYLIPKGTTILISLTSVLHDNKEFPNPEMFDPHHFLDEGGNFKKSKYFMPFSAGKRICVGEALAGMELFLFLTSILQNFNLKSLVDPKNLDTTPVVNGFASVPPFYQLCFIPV

Cytochrome P450 2D6 = Cytochrome P450 2D6 (Homo sapiens, UniProt P10635); experiment: Inhibition of CYP2D6 in human liver microsomes; assay type: ADME, Microsome
Sequence of Cytochrome P450 2D6 (P10635 whole entry): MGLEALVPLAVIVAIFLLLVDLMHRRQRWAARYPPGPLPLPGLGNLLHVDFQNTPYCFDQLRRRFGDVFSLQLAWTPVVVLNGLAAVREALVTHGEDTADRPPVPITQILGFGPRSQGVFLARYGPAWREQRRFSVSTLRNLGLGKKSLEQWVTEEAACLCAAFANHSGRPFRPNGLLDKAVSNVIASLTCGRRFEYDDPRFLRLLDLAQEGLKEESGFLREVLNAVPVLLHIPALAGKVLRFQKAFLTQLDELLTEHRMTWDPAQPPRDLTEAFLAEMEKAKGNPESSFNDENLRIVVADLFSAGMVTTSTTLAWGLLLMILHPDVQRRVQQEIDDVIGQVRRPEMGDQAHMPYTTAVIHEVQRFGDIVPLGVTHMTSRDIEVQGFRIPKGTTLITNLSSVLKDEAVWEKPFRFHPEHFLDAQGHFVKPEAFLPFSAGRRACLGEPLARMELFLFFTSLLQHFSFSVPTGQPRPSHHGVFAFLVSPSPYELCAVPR

Cytochrome P450 3A4 = Cytochrome P450 3A4 (Homo sapiens, UniProt P08684); experiment: Inhibition of CYP3A4 in human liver microsomes; assay type: ADME, Microsome
Sequence of Cytochrome P450 3A4 (P08684 whole entry): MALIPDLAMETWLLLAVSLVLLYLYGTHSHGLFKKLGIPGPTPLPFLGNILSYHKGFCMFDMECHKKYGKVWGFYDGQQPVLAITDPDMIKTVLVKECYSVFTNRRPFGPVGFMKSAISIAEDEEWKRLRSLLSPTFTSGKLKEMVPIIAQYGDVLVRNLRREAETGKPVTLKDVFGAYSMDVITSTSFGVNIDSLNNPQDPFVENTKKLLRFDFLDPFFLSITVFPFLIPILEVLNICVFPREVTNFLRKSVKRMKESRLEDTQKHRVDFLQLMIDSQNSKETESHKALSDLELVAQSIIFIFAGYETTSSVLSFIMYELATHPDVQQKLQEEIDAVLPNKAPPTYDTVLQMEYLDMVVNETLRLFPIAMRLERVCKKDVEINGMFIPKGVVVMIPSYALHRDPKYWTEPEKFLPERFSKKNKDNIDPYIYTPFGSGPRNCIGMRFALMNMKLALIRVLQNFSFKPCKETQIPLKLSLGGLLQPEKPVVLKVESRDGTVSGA

Hepatocyte = experiment: Induction of CYP3A4 in human hepatocytes at 20 uM relative to rifampicin; assay type: functional, cell-based
Salmonella typhimurium [17] = experiment: Effect on Salmonella Typhimurium mutation in absence of liver microsomal enzymes by Ames assay; assay type: functional, organism-based; conditions: Salmonella enterica subsp. enterica serovar Typhimurium
Escherichia coli [18] = experiment: Effect on Escherichia coli mutation in absence of liver microsomal enzymes by Ames assay; assay type: functional, organism-based
Gerbil, jird [19] = experiment: Plasma concentration in gerbil at 30 mg/kg, po; assay type: ADME, organism-based; set-up: dose 30 mg/kg, route oral; conditions: meriones, in vivo

Structure (SMILES): COC(=O)N(NC(=O)c1c(OC)c(-c2cccc(F)c2)nc2ccccc12)c1ccccc1
IC50 (Neuromedin-K receptor [1]): 22 nM (antagonist) | Emax (PXR (NR1I2)): 69%

Structure (SMILES): COC(=O)N(NC(=O)c1c(OC)c(-c2ccccc2)nc2cc(F)ccc12)c1ccccc1
IC50 (Neuromedin-K receptor [1]): 28 nM (antagonist) | Emax (PXR (NR1I2)): 62%

Structure (SMILES): COC(=O)N(NC(=O)c1c(OC)c(-c2ccccc2)nc2c(C(F)(F)F)cccc12)c1ccccc1
Emax (PXR (NR1I2)): 87% | inhibition [2]: 27%

Structure (SMILES): COc1c(-c2ccccc2)nc2ccccc2c1C(=O)NN(c1ccccc1)c1ccccc1
IC50 (Neuromedin-K receptor [1]): 0.85 nM (antagonist) | Emax (PXR (NR1I2)): 68% | remaining at 0.25 h [3]: 65% | concentration (Gerbil, jird [4]): 40 nM

Structure (SMILES): COC(=O)N(NC(=O)c1c(OC)c(-c2ccccc2)nc2c(C#N)cccc12)c1ccccc1
Emax (PXR (NR1I2)): 87% | inhibition [2]: 35%

Structure (SMILES): COC(=O)N(NC(=O)c1c(OC)c(-c2ccccc2)nc2ccccc12)c1ccc(F)cc1
IC50 (Neuromedin-K receptor [1]): 33 nM (antagonist)

Structure (SMILES): COC(=O)N(NC(=O)c1c(OC)c(-c2ccccc2)nc2c(Br)cccc12)c1ccccc1
IC50 (Neuromedin-K receptor [1]): 430 nM (antagonist) | Emax (PXR (NR1I2)): 88%

Structure (SMILES): COC(=O)N(NC(=O)c1c(OC)c(-c2ccccc2)nc2c(F)cccc12)c1ccccc1
IC50 (Neuromedin-K receptor [1]): 4.1 nM (antagonist) | Emax (PXR (NR1I2)): 75%

Structure (SMILES): CC[C@H](NC(=O)c1c(O)c(-c2ccccc2)nc2ccccc12)c1ccccc1 [TALNETANT]
Emax (PXR (NR1I2)): 62% | concentration (Gerbil, jird [5]): 3800 nM

Structure (SMILES): COC(=O)N(NC(=O)c1c(OC)c(-c2ccc(F)cc2)nc2ccccc12)c1ccccc1
IC50 (Neuromedin-K receptor [1]): 24 nM (antagonist) | Emax (PXR (NR1I2)): 54%

Structure (SMILES): COC(=O)N(NC(=O)c1c(OC)c(-c2ccccc2)nc2ccc(F)cc12)c1ccccc1
IC50 (Neuromedin-K receptor [1]): 38 nM (antagonist) | Emax (PXR (NR1I2)): 62%

Structure (SMILES): COc1c(-c2ccccc2)nc2ccccc2c1C(=O)NNc1ccccc1
IC50 (Neuromedin-K receptor [1]): 32 nM (antagonist)

Structure (SMILES): COC(=O)N(NC(=O)c1c(OC)c(-c2ccccc2)nc2ccccc12)c1ccccc1
Activity [6]: inactive | Emax (PXR (NR1I2)): 49% | remaining at 0.25 h [3]: 21% | IC50 (Neuromedin-K receptor [7]): 66 nM (antagonist) | bioavailability [8]: 43% | half-life [9]: 4.6 h | bioavailability [10]: 36% | half-life [11]: 3 h | Activity (Salmonella typhimurium [12]): inactive | Activity (Escherichia coli [13]): inactive | Activity [14]: Dose-dependent effect | Activity [15]: inactive | IC50 (Substance-P receptor): > 1000 nM | IC50 (Substance-K receptor): > 1000 nM | Ki [16]: > 8000 nM | IC50 (Cytochrome P450 2C9): > 30000 nM | IC50 (Cytochrome P450 2D6): > 30000 nM | IC50 (Cytochrome P450 3A4): 12000 nM | Activity (Hepatocyte): Active | Activity (Salmonella typhimurium [17]): inactive | Activity (Escherichia coli [18]): inactive | concentration (Gerbil, jird [19]): 950 nM

Now from value to compound:

IC50 (Neuromedin-K receptor [1]): 8.4 nM (antagonist) | Emax (PXR (NR1I2)): 56%
Structure (SMILES): COC(=O)N(NC(=O)c1c(C)c(-c2ccccc2)nc2ccccc12)c1ccccc1

IC50 (Neuromedin-K receptor [1]): 110 nM (antagonist)
Structure (SMILES): COC(=O)N(NC(=O)c1c(OC)c(-c2ccccc2F)nc2ccccc12)c1ccccc1

IC50 (Neuromedin-K receptor [1]): 60 nM (antagonist)
Structure (SMILES): CCOC(=O)N(NC(=O)c1c(OC)c(-c2ccccc2)nc2ccccc12)c1ccccc1

IC50 (Neuromedin-K receptor [1]): 57 nM (antagonist)
Structure (SMILES): COc1c(-c2ccccc2)nc2ccccc2c1C(=O)NN(C)c1ccccc1

IC50 (Neuromedin-K receptor [1]): 210 nM (antagonist)
Structure (SMILES): COc1c(-c2ccccc2)nc2ccccc2c1C(=O)NN(C(C)=O)c1ccccc1

IC50 (Neuromedin-K receptor [1]): 22 nM (antagonist)
Structure (SMILES): CCC(=O)N(NC(=O)c1c(OC)c(-c2ccccc2)nc2ccccc12)c1ccccc1

IC50 (Neuromedin-K receptor [1]): 91 nM (antagonist) | Emax (PXR (NR1I2)): 44%
Structure (SMILES): COC(=O)N(NC(=O)c1cc(-c2ccccc2)nc2ccccc12)c1ccccc1

IC50 (Neuromedin-K receptor [1]): 16 nM (antagonist)
Structure (SMILES): CCN(NC(=O)c1c(OC)c(-c2ccccc2)nc2ccccc12)c1ccccc1

IC50 (Neuromedin-K receptor [1]): 11 nM (antagonist) | Emax (PXR (NR1I2)): 55%
Structure (SMILES): COC(=O)N(NC(=O)c1c(OC)c(-c2ccccc2)nc2cccc(F)c12)c1ccccc1

IC50 (Neuromedin-K receptor [1]): 39 nM (antagonist)
Structure (SMILES): COC(=O)N(NC(=O)c1c(O)c(-c2ccccc2)nc2ccccc12)c1ccccc1

IC50 (Neuromedin-K receptor [1]): 10 nM (antagonist) | Emax (PXR (NR1I2)): 64%
Structure (SMILES): COC(=O)N(NC(=O)c1c(N)c(-c2ccccc2)nc2ccccc12)c1ccccc1

IC50 (Neuromedin-K receptor [1]): 190 nM (antagonist)
Structure (SMILES): COc1c(-c2ccccc2)nc2ccccc2c1C(=O)NN(C(=O)OCC(C)C)c1ccccc1

IC50 (Neuromedin-K receptor [1]): 7.4 nM (antagonist) | Emax (PXR (NR1I2)): 54%
Structure (SMILES): COC(=O)N(NC(=O)c1c(OC)c(-c2ccccc2)nc2ccccc12)c1cccc(F)c1

IC50 (Neuromedin-K receptor [1]): 53 nM (antagonist)
Structure (SMILES): COC(=O)N(NC(=O)c1c(OC)c(-c2ccccc2)nc2ccccc12)c1ccccc1F
